The record followed here is article PMC3898329, “Human junctophilin-2 undergoes a structural rearrangement upon binding PtdIns(3,4,5)P3 and the S101R mutation identified in hypertrophic cardiomyopathy obviates this response” (Biochemical Journal, 2013).

The target of assay [1] is T1, full-length human JP2 (junctophilin-2) (Homo sapiens, UniProt Q9BR39).
T1 construct: gene JPH2; full-length, N-terminal MBP tag removed with PreScission protease; E. coli BL21; ~75 kDa on SDS/PAGE; stated as monomeric
T1 sequence (Q9BR39 1-696): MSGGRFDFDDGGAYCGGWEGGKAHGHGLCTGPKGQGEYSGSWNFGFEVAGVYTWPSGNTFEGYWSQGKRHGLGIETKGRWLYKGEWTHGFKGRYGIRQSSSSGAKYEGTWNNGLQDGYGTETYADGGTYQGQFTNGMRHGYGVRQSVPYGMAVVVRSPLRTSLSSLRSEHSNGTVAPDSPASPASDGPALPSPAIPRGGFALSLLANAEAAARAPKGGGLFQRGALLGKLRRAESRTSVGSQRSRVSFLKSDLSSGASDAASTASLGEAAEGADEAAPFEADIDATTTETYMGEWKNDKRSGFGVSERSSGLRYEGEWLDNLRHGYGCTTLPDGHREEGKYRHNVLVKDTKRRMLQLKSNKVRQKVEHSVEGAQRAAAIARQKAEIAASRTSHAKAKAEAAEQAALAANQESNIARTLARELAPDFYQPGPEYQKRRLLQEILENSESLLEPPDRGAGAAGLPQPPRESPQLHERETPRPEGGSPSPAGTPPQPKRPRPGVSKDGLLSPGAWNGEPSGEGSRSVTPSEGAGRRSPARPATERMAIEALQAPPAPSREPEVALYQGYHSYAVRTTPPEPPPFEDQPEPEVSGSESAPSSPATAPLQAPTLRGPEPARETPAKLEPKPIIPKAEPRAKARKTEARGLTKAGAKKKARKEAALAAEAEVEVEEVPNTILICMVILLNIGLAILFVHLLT
In words: protein-lipid overlay. To be noted: weak binding.

Assay [2] concerns the target T2, JP2^1–452 (N-terminal domain) (Homo sapiens, UniProt Q9BR39).
T2 construct: gene JPH2; N-terminal segment, residues 1-452, N-terminal MBP tag removed with PreScission protease; E. coli BL21; ~50 kDa on SDS/PAGE
T2 sequence (Q9BR39 1-452): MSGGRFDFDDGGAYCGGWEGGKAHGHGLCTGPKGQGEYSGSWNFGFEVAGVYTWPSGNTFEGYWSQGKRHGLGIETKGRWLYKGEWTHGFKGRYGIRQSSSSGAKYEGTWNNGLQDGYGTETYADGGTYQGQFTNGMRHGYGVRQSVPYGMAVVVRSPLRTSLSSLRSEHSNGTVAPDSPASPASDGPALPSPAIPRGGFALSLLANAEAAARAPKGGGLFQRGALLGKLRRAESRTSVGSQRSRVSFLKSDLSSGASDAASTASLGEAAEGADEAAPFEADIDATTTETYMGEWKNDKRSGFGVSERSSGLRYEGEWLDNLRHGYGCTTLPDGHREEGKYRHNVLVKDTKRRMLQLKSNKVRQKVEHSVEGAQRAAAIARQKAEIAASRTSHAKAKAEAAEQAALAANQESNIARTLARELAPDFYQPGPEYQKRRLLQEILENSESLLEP
The experiment in a line: QCM-D, supported lipid bilayer, one-site isotherm. Type of assay: binding. The note with it: read-out: DOPC/DOPE/POPC/DOPS (55:15:10:20, by vol.) / JP2^1-452. From the text: QCM-D, supported lipid bilayer, one-site isotherm on JP2^1–452 (N-terminal domain)

Assay [3] has as its target T1, full-length human JP2 (junctophilin-2). In words: QCM-D, supported lipid bilayer, one-site isotherm. The note with it: read-out: DOPC/DOPE/POPC/DOPS (55:15:10:20, by vol.) JP2. It counts as binding. The source says: (§1) QCM-D, supported lipid bilayer, one-site isotherm on full-length human JP2 (junctophilin-2)
The target in assay [4] is T3, full-length human JP2 (junctophilin-2) (Homo sapiens, UniProt Q9BR39, S101R).
T3 construct: gene JPH2; full-length, N-terminal MBP tag removed with PreScission protease; E. coli BL21; ~75 kDa on SDS/PAGE; stated as monomeric
T3 sequence (Q9BR39 1-696 S101R): T1 sequence (Q9BR39 1-696) with S101R
In words: QCM-D, supported lipid bilayer, one-site isotherm. Type of assay: binding. To be noted: read-out: DOPC/DOPE/POPC/DOPS (55:15:10:20, by vol.) / S101R.
Text: as §1

Molecules are shown by their SMILES. Numbering of substitutions follows the chain as printed.

For `CCCCCCCC/C=C\CCCCCCCC(=O)OC[C@H](COP(=O)(O)OCC(O)CO)OC(=O)CCCCCCC/C=C\CCCCCCCC` (stereo partly shown) [DOPG, 1,2-dioleoyl-sn-glycero-3-phosphoglycerol], the protein-lipid overlay entry in assay [1] is reported as “there is only weak binding of JP2 to DOPG”.
`CCCCCCCC/C=C\CCCCCCCC(=O)OC[C@H](COP(=O)(O)OC[C@H](N)C(=O)O)OC(=O)CCCCCCC/C=C\CCCCCCCC` [DOPS, 1,2-dioleoyl-sn-glycero-3-phospho-L-serine]: the values for the Kd in assay [2], in assay [3] and in assay [4] were 992 ± 80 nM, 483 ± 54 nM and 371 ± 31 nM, respectively.
